From patent US9200008B2 (ASKA PHARMACEUTICAL CO., LTD., priority 2010, dated 2015) come the findings set out here.

In the experiment the test system is Human prostate cancer cell lines (PC-3 cells). Briefly: Measurement of cell death-inducing activity (Test Example 1). The experiment is classed as cell-based. As to conditions: PC-3, 48 h, 48 hours after addition, tested at 10, 1, 0.1, 0.025 and 0.00625 μmol/L, qualitative evaluation of 10 fields, read-out: Concentration showing the cell death-inducing activity (cell death-inducing rate not less than 40%). The method, boiled down:
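Compound treatment lasted 48 h at 10 to 0.00625 μmol/L (five levels, DMSO as control) on PC-3 cells pre-cultured 48 h at 37 °C, 5% CO2 after seeding at 1×10^5 cells/well. A cell death-inducing rate of 40% or more counted as active.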
Take `COc1ccc(CN(C)NC(=O)c2sc(-c3ccc(Cl)cc3OC)nc2C)cc1O` [Example 16-24]: the minimal effective concentration came to 0.1 µM.
The result for `COc1ccc(/C=N/NC(=O)c2sc(-c3ccc(Cl)cc3)nc2C)cc1O` [Example 23-7] reads 0.1 µM.
The result for `COc1cc(Cl)ccc1-c1nc(C)c(NC(=O)OCc2ccc3c(c2)ncn3C)s1` [Example 9-39] reads 0.00625 µM; that for `CCc1nc(-c2ccccc2OC)sc1NC(=O)OCc1ccc2c(c1)ncn2CC` [Example 9-162], 0.1 µM.
The result for `CCn1nc(-c2ccc(Cl)cc2Cl)cc1NC(=O)OCc1ccc2c(c1)ncn2C` [Example 9-208] reads 0.025 µM.
Consider `Cc1ccc(-c2nc(C)c(NC(=O)OCc3ccc4c(c3)nc3n4CCCCC3)s2)c(C)c1` [Example 9-124], for which the minimal effective concentration turned out to be 10 µM.
The result for `O=C(N/N=C/c1ccc(O)c(F)c1)c1cc(-c2ccc(Cl)cc2Cl)n[nH]1` [Example 21-18] reads 10 µM; that for `CCc1nc(-c2ccc(F)cc2C)sc1NC(=O)OCc1ccc2ncsc2c1` [Example 36-5], 10 µM.
Turning to `CCn1c(C)nc2cc(COC(=O)Nc3sc(-c4ccc(Cl)cc4OC)nc3C)ccc21` [Example 9-86], the minimal effective concentration was 0.025 µM.
On to `CCc1nc(-c2ccc(C)cc2OC)sc1NC(=O)OCc1ccc2c(c1)nc1n2CCCC1` [Example 9-353], for which the minimal effective concentration was 0.1 µM.
In the case of `CCc1nc2cc(COC(=O)Nc3cc(-c4ccc(Cl)cc4OC)nn3C)ccc2n1C` [Example 9-242] it was 0.1 µM.
The result for `Cc1nc(-c2ccc(F)cc2)sc1NC(=O)OCc1ccc2c(c1)ncn2C` [Example 9-45] reads 1 µM.
Regarding `COc1ccc(CN(C)NC(=O)c2sc(-c3ccc(Cl)cc3OC)nc2C)cc1` [Example 16-1, 2-(4-Chloro-2-methoxyphenyl)-4-methylthiazole-5-carboxylic acid N′-(4-methoxybenzyl)-N′-methyl hydrazide], the minimal effective concentration is 0.1 µM.
Take `CCc1nc(-c2ccc(F)cc2C)sc1COC(=O)Nc1ccc2c(c1)ncn2C` [Example 13-149]: the minimal effective concentration amounted to 0.025 µM.
In the case of `COc1ccc(CN(C)NC(=O)c2sc(-c3ccc(Cl)cc3OC)nc2C)cc1OC` [Example 16-16] it was 1 µM; in that of `Cn1nc(NC(=O)OCc2ccc3c(c2)ncn3C)cc1-c1ccccc1` [Example 9-306], 10 µM; in that of `Cn1cnc2cc(COC(=O)Nc3nnc(-c4ccc(Cl)cc4Cl)s3)ccc21` [Example 9-335], 10 µM.
The result for `CCc1ccccc1-c1nc(C)c(NC(=O)OCc2ccc3nn(CC)cc3c2)s1` [Example 9-151] reads 1 µM; that for `COc1cc(Cl)ccc1-c1cc(C(=O)N/N=C/c2ccc3c(c2)ncn3C)n(C)n1` [Example 21-25], 0.1 µM.
In the case of `COc1cc(Cl)ccc1-c1cc(COC(=O)Nc2ccc3c(cnn3C)c2)n(C)n1` [Example 13-127] it was 0.1 µM; in that of `COc1cc(Cl)ccc1-c1cc(NC(=O)OCc2ccc3c(cnn3C)c2)n(C)n1` [Example 9-280], 0.00625 µM; in that of `CCn1ncc2cc(COC(=O)Nc3csnc3-c3ccc(Cl)cc3OC)ccc21` [Example 45-7], 0.1 µM.
Regarding `COc1ccc(/C=N/NC(=O)Cc2sc(-c3ccc(Cl)cc3OC)nc2C)cc1` [Example 29-1, [2-(4-Chloro-2-methoxyphenyl)-4-methylthiazol-5-yl]acetic acid[1-(4-methoxyphenyl)methylidene]hydrazide], the minimal effective concentration worked out at 1 µM.
`COc1cc(Cl)ccc1-c1cc(COC(=O)Nc2ccc3c(c2)nc2n3CCCC2)sn1` [Example 47-7]: the minimal effective concentration was determined as 0.00625 µM.
In the case of `Cc1ccc(-c2nc(C)c(COC(=O)Nc3ccc4nn(C)cc4c3)s2)c(C)c1` [Example 13-48], the minimal effective concentration is 0.1 µM.
The result for `COc1ccc(/C=N/NC(=O)c2sc(-c3ccc(Cl)cc3OC)nc2C)cc1O` [Example 23-74] reads 0.1 µM.
In the case of `CCc1nc(-c2ccc(C)cc2OC)sc1NC(=O)OCc1ccc2c(c1)nc1n2CCOC1` [Example 9-358] it was 0.025 µM.
Consider `COc1ccc(/C=N/NC(=O)c2sc(C3CCCCC3)nc2C)cc1O` [Example 23-128], for which the minimal effective concentration was 1 µM.
The result for `COc1ccc(CN(C)NC(=O)c2sc(-c3ccc(OC)cc3Cl)nc2C)cc1` [Example 16-9] reads 10 µM.
Take `Cc1ccccc1-c1ncc(C(=O)N/N=C/c2ccc3c(c2)OCO3)s1` [Example 23-52]: the minimal effective concentration was found to be 1 µM.
With `Cc1nc(-c2ccc(F)cc2Cl)sc1COC(=O)Nc1ccc2c(c1)ncn2C` [Example 13-11], the minimal effective concentration was 0.025 µM.
The result for `Cc1ccc(-c2nc(C)c(COC(=O)Nc3ccc4c(c3)nc3n4CCOC3)s2)c(C)c1` [Example 13-24] reads 0.025 µM; that for `Cc1nc(-c2ccc(Cl)cc2)sc1C(=O)N/N=C/c1ccc(O)c2ccccc12` [Example 23-110], 1 µM; that for `COc1cc(Cl)ccc1-c1cc(NC(=O)OCc2ccc3nn(C)cc3c2)n(C)n1` [Example 9-291], 0.025 µM.
For `Cc1cc(/C=N/NC(=O)c2cc(-c3ccc(Cl)cc3)c[nH]2)cc(C)c1O` [Example 24-3, 4-(4-Chlorophenyl)-1H-pyrrole-2-carboxylic acid[1-(4-hydroxy-3,5-dimethylphenyl)methylidene]hydrazide], the minimal effective concentration turned out to be 0.1 µM.
The result for `CCn1cnc2cc(NC(=O)OCc3cc(-c4ccc(Cl)cc4Cl)ns3)ccc21` [Example 47-12] reads 10 µM.
In the case of `CCn1cnc2cc(NC(=O)OCc3cc(-c4ccc(Cl)cc4OC)nn3C)ccc21` [Example 13-86] it was 0.00625 µM.
In the case of `CCn1nc(-c2ccccc2OC)cc1NC(=O)OCc1ccc2c(c1)nc1n2CCCC1` [Example 9-264] it was 1 µM; in that of `CCc1nc(-c2ccc(C)cc2OC)sc1NC(=O)OCc1ccc2c(c1)ncn2C` [Example 9-344], 0.00625 µM.
On to `COc1cc(Cl)ccc1-c1cc(COC(=O)Nc2ccc3c(c2)nc2n3CCC2)n(C)n1` [Example 13-108], for which the minimal effective concentration amounted to 0.00625 µM.
The result for `COc1cc(F)ccc1-c1cc(NC(=O)OCc2ccc3c(c2)nc2n3CCC2)n(C)n1` [Example 9-256] reads 0.1 µM.
Regarding `Cc1cc(Cl)ccc1-c1nc(C)c(COC(=O)Nc2ccc3nn(C)cc3c2)s1` [Example 13-50], the minimal effective concentration amounted to 0.025 µM.
Consider `Cc1cc(Cl)ccc1-c1nc(C)c(C(=O)NN(C)Cc2ccc3c(ccn3C)c2)s1` [Example 17-2], for which the minimal effective concentration was determined as 0.025 µM.
In the case of `Cc1ccc(-c2nc(C)c(NC(=O)OCc3ccc4c(c3)nc3n4CCC(C)C3)s2)c(C)c1` (stereo not drawn) [Example 9-122] it was 1 µM.
Consider `CCc1nc(-c2ccc(C)cc2OC)sc1NC(=O)OCc1ccc2c(c1)nc(C)n2C` [Example 9-374], for which the minimal effective concentration was determined as 0.1 µM.
`COc1ccccc1-c1nc(C)c(C(=O)N/N=C/c2ccc(N3CCOCC3)cc2)s1` [Example 23-89]: the minimal effective concentration turned out to be 1 µM.
In the case of `CCc1ccccc1-c1nc(C)c(NC(=O)OCc2ccc3c(c2)ncn3C)s1` [Example 9-36] it was 0.025 µM.
The result for `COc1ccc(/C=C/C(=O)Nc2sc(-c3ccc(Cl)cc3OC)nc2C)cc1` [Example 34-1, N-[2-(4-Chloro-2-methoxyphenyl)-4-methylthiazol-5-yl]-3-(4-methoxyphenyl)acrylamide] reads 1 µM; that for `COc1cc(Cl)ccc1-c1nc(C)c(C(=O)NN(C)Cc2cc(C)c(O)c(C)c2)s1` [Example 17-4, 2-(4-Chloro-2-methoxyphenyl)-4-methylthiazole-5-carboxylic acid N′-(4-hydroxy-3,5-dimethylbenzyl)-N′-methyl hydrazide], 10 µM.
As to `CCN(Cc1ccc(OC)cc1)NC(=O)c1cc(-c2ccc(Cl)cc2OC)ns1` [Example 19-2, 3-(4-Chloro-2-methoxyphenyl)isothiazole-5-carboxylic acid N′-(4-methoxybenzyl)-N′-ethyl hydrazide], the minimal effective concentration worked out at 10 µM.
In the case of `CCc1nc(-c2ccc(Cl)cc2C)sc1NC(=O)OCc1ccc2c(cnn2CC)c1` [Example 9-362] it was 0.025 µM; in that of `COc1ccc(/C=N/NC(=O)c2sc(-c3ccc(Cl)cc3OC)nc2C)cc1OC` [Example 23-78], 0.1 µM; in that of `COc1cc(/C=N/NC(=O)c2sc(-c3ccc(Cl)cc3OC)nc2C)ccc1O` [Example 23-81], 10 µM.
The result for `COc1ccc(CN(C)NC(=O)c2sc(-c3ccc(Cl)cc3OC)nc2C)cc1F` [Example 16-20] reads 0.1 µM; that for `CCc1nc(-c2ccc(Cl)cc2OC)sc1NC(=O)OCc1ccc2c(c1)ncn2C` [Example 9-181], 0.00625 µM; that for `COc1ccc(/C=N/NC(=O)c2sc(-c3cccnc3)nc2C)cc1O` [Example 23-41], 1 µM.
In the case of `COc1ccc(/C=N/NC(=O)c2sc(-c3ccccc3Cl)nc2C)cc1O` [Example 23-2] it was 0.1 µM; in that of `COc1ccc(NC(=O)OCc2cc(-c3ccc(Cl)cc3OC)nn2C)cc1F` [Example 13-71], 1 µM; in that of `CCc1ccccc1-c1nc(C)c(NC(=O)OCc2ccc3c(c2)nc2n3CCCC2)s1` [Example 9-109], 1 µM.
On to `CCc1nc(-c2ccccc2OC)sc1NC(=O)OCc1ccc2nn(CC)cc2c1` [Example 9-367], for which the minimal effective concentration is 1 µM.
